One test concerns the target T1, RORγ-LBD (Homo sapiens, UniProt P51449).
T1 construct: made in house; host or cells: SF9 cells (baculovirus); used as diluted lysate
T1 sequence (P51449 269-508 limits assumed): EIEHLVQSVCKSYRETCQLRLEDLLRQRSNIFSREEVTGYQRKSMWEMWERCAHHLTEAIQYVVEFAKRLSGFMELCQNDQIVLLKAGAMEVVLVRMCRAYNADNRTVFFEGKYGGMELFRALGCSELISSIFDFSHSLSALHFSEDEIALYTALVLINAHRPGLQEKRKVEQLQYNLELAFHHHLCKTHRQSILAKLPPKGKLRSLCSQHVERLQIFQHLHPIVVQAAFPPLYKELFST
The test is described as follows: RORγ-Ligand Binding Domain (LBD) TR-FRET Assay.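 On TR-FRET Assay Max Response: 665/615 nm signal ratio set to 100 without ursolic acid or test compound.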 It is filed as biochemical. The note with it: for TR-FRET Assay Max Response: maximum response. The essentials: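 SF9 lysate containing His-RORγ-LBD, ~3 nM final; coactivator peptide biotin-SRC1 LXXLL, 200 nM final; ursolic acid 2 μM final; DMSO 1% final; Tris pH 7.0 buffer with KCl, EDTA, DTT, BSA. TR-FRET format.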
A general note: Time-resolved FRET reads energy transfer from a long-lived donor to a nearby acceptor.

Another test addresses T2, Gal4-RORγ-LBD (Homo sapiens, UniProt P51449).
T2 construct: expressed in transfected cells
T2 sequence (P51449 269-508 limits assumed): T1 sequence (P51449 269-508 limits assumed)
As to the kind of experiment: Gal4-RORγ Luciferase Reporter Assay in HEK-293T Cells. It is filed as cell-based. The note with it: HEK-293 cells; for Gal4-RORγ Assay Max Response: maximum response. The essentials:
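HEK-293 cells were co-transfected with Gal4-RORγ-LBD and a Gal4-luciferase reporter, then exposed overnight at 37 °C to compounds with […] ursolic acid present (0.2% DMSO). Luminescence was read with One-Glo after 10 min at RT, untreated signal was set as 100, and Max Response was taken as the upper plateau of a 4-parameter logistic fit.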
(In a reporter assay the amount or activity of a reporter protein is the signal.)

Setting [1] is: luciferase reporter, in presence of ursolic acid.
[2] abbreviates: with 2 μM ursolic acid (RORγ antagonist), highest test concentration 10 μM.
The mark [3] stands for this setting: ursolic acid present, luciferase readout.

As usually defined, the pEC50 is the EC50 on a negative log10 scale, so that one unit is a factor of ten.

pEC50: −log10 of the molar value.

With `C/C(=C\c1ccc2c(c1)N(S(=O)(=O)c1cccc(C(F)(F)F)c1)C[C@@H](NS(C)(=O)=O)C2)c1c(F)cccc1Cl` [Example 116I, (S,E)-N-(7-(2-(2-chloro-6-fluorophenyl)prop-1-en-1-yl)-1-((3-(trifluoromethyl)phenyl)-sulfonyl)-1,2,3,4-tetrahydroquinolin-3-yl)methanesulfonamide], at RORγ-LBD (RORγ-LBD TR-FRET assay), the pEC50 was greater than 6.30 and the “TR-FRET Assay Max Response” value was “*** (a value in the range of greater than 150 to 200)”. At Gal4-RORγ-LBD (setting [1]), the pEC50 is 5.30 to 6.30 and the “Gal4-RORγ Assay Max Response” value is “** (a value in the range of greater than 90 to 150)”.
With `C/C(=C\c1ccc2c(c1)N(S(=O)(=O)c1cccc(C(F)(F)F)c1)[C@H](C)[C@H](NS(C)(=O)=O)C2)c1c(F)cccc1Cl` [Example 116J, N-((2R,3R)-7-((E)-2-(2-chloro-6-fluorophenyl)prop-1-en-1-yl)-2-methyl-1-((3-(trifluoromethyl)phenyl)sulfonyl)-1,2,3,4-tetra-hydroquinolin-3-yl)methanesulfonamide], at RORγ-LBD (RORγ-LBD TR-FRET assay), the negative logarithm of the EC50 (pEC50) is greater than 6.30 and the “TR-FRET Assay Max Response” value is recorded as “*** (a value in the range of greater than 150 to 200)”. In addition, on Gal4-RORγ-LBD (setting [1]), the pEC50 was 5.30 to 6.30 and the “Gal4-RORγ Assay Max Response” value was “*** (a value in the range of greater than 150 to 200)”.
`COc1cc(S(=O)(=O)N2C[C@H](CCNC(=O)C(=O)O)Oc3ccc(/C=C(\C)c4c(F)cccc4Cl)cc32)ccc1F` [Example 116K, (S,E)-2-((2-(6-(2-(2-chloro-6-fluorophenyl)prop-1-en-1-yl)-4-((4-fluoro-3-methoxyphenyl)sulfonyl)-3,4-dihydro-2H-benzo[b][1,4]-oxazin-2-yl)ethyl)amino)-2-oxoacetic acid]: at RORγ-LBD (RORγ-LBD TR-FRET assay), the negative logarithm of the EC50 (pEC50) was greater than 6.30 and the “TR-FRET Assay Max Response” value is given as “*** (a value in the range of greater than 150 to 200)”. Moreover, at Gal4-RORγ-LBD (setting [1]), the negative-log EC50 (pEC50) is 5.30 to 6.30 and the “Gal4-RORγ Assay Max Response” value was “** (a value in the range of greater than 90 to 150)”.
Turning to `C/C(=C\c1ccc2c(c1)N(S(=O)(=O)c1cccc(C(F)(F)F)c1)C[C@H](CNC(=O)N1CCOCC1)O2)c1c(F)cccc1Cl` [Example 116N, (S,E)-N-((6-(2-(2-chloro-6-fluorophenyl)prop-1-en-1-yl)-4-((3-(trifluoromethyl)phenyl)sulfonyl)-3,4-dihydro-2H-benzo[b][1,4]-oxazin-2-yl)methyl)morpholine-4-carboxamide], the pEC50 on RORγ-LBD (setting [2]) and on Gal4-RORγ-LBD (setting [3]) was greater than 6.30 in each case.
As for `C/C(=C\c1ccc2c(c1)N(S(=O)(=O)c1cccc(C(F)(F)F)c1)C[C@H](CNC(=O)N1CCC(C(=O)O)CC1)O2)c1c(F)cccc1Cl` [Example 116O, (S,E)-1-(((6-(2-(2-chloro-6-fluorophenyl)prop-1-en-1-yl)-4-((3-(trifluoromethyl)phenyl)sulfonyl)-3,4-dihydro-2H-benzo[b][1,4]oxazin-2-yl)methyl)carbamoyl)piperidine-4-carboxyic acid], the negative logarithm of the EC50 (pEC50) on RORγ-LBD (setting [2]) and on Gal4-RORγ-LBD (setting [3]) was greater than 6.30 each time.
`C/C(=C\c1ccc2c(c1)N(S(=O)(=O)c1cccc(C(F)(F)F)c1)C[C@H](CNC(=O)N(C)CCC(=O)O)O2)c1c(F)cccc1Cl` [Example 116P, (S,E)-3-(3-((6-(2-(2-chloro-6-fluorophenyl)prop-1-en-1-yl)-4-((3-(trifluoromethyl)phenyl)sulfonyl)-3,4-dihydro-2H-benzo[b][1,4]-oxazin-2-yl)methyl)-1-methylureido)propanoic acid]: the negative logarithm of the EC50 (pEC50) at RORγ-LBD (setting [2]) and at Gal4-RORγ-LBD (setting [3]) was greater than 6.30 in each case.
On to `C/C(=C\c1ccc2c(c1)N(S(=O)(=O)c1cccc(C(F)(F)F)c1)C[C@H](CCCN1CCCC1)O2)c1c(F)cccc1Cl` [Example 117, (S,E)-6-(2-(2-Chloro-6-fluorophenyl)prop-1-en-1-yl)-2-(3-(pyrrolidin-1-yl)propyl)-4-((3-(trifluoromethyl)phenyl)sulfonyl)-3,4-dihydro-2H-benzo[b][1,4]oxazine], for which, at RORγ-LBD (RORγ-LBD TR-FRET assay), the negative-log EC50 (pEC50) was greater than 6.30 and the “TR-FRET Assay Max Response” value is “*** (a value in the range of greater than 150 to 200)”. In addition, at Gal4-RORγ-LBD (setting [1]), the pEC50 is 5.30 to 6.30 and the “Gal4-RORγ Assay Max Response” value is listed as “** (a value in the range of greater than 90 to 150)”.
Regarding `C/C(=C\c1ccc2c(c1)N(S(=O)(=O)c1cccc(C(F)(F)F)c1)C[C@H](CCN1CCCC1)O2)c1c(F)cccc1Cl` [Example 118, (S,E)-6-(2-(2-Chloro-6-fluorophenyl)prop-1-en-1-yl)-2-(2-(pyrrolidin-1-yl)ethyl)-4-((3-(trifluoromethyl)phenyl)sulfonyl)-3,4-dihydro-2H-benzo[b][1,4]oxazine], the pEC50 on RORγ-LBD (RORγ-LBD TR-FRET assay) is greater than 6.30; on Gal4-RORγ-LBD (setting [1]), 5.30 to 6.30.
Turning to `C/C(=C\c1ccc2c(c1)N(S(=O)(=O)c1cccc(C(F)(F)F)c1)C[C@H](CCN1CCOCC1)O2)c1c(F)cccc1Cl` [Example 119A, (S,E)-6-(2-(2-chloro-6-fluorophenyl)prop-1-en-1-yl)-2-(2-morpholinoethyl)-4-((3-(trifluoromethyl)phenyl)sulfonyl)-3,4-dihydro-2H-benzo[b][1,4]oxazine], on RORγ-LBD (RORγ-LBD TR-FRET assay), the pEC50 was greater than 6.30 and the “TR-FRET Assay Max Response” value is reported as “**** (a value greater than 200)”. Also, on Gal4-RORγ-LBD (setting [1]), the pEC50 was greater than 6.30 and the “Gal4-RORγ Assay Max Response” value is on record as “** (a value in the range of greater than 90 to 150)”.
As for `C/C(=C\c1ccc2c(c1)N(S(=O)(=O)c1cccc(C(F)(F)F)c1)C[C@H](CCCN1CCC(O)C1)O2)c1c(F)cccc1Cl` (stereo partly drawn) [Example 119B, 1-(3-((S)-6-((E)-2-(2-chloro-6-fluorophenyl)prop-1-en-1-yl)-4-((3-(trifluoromethyl)-phenyl)-sulfonyl)-3,4-dihydro-2H-benzo[b][1,4]-oxazin-2-yl)propyl)-pyrrolidin-3-ol], on RORγ-LBD (RORγ-LBD TR-FRET assay), the negative-log EC50 (pEC50) was greater than 6.30 and the “TR-FRET Assay Max Response” value is given as “*** (a value in the range of greater than 150 to 200)”. Also, at Gal4-RORγ-LBD (setting [1]), the pEC50 is 5.30 to 6.30 and the “Gal4-RORγ Assay Max Response” value is reported as “** (a value in the range of greater than 90 to 150)”.
With `C/C(=C\c1ccc2c(c1)N(S(=O)(=O)c1cccc(C(F)(F)F)c1)C[C@H](CCN1CCC(O)C1)O2)c1c(F)cccc1Cl` (stereo partly drawn) [Example 119C, 1-(2-((S)-6-((E)-2-(2-chloro-6-fluorophenyl)prop-1-en-1-yl)-4-((3-(trifluoromethyl)-phenyl)sulfonyl)-3,4-dihydro-2H-benzo[b][1,4]oxazin-2-yl)ethyl)pyrrolidin-3-ol], at RORγ-LBD (RORγ-LBD TR-FRET assay), the negative logarithm of the EC50 (pEC50) is greater than 6.30 and the “TR-FRET Assay Max Response” value is listed as “*** (a value in the range of greater than 150 to 200)”. On Gal4-RORγ-LBD (setting [1]), the negative-log EC50 (pEC50) is 5.30 to 6.30 and the “Gal4-RORγ Assay Max Response” value is recorded as “** (a value in the range of greater than 90 to 150)”.
As for `C/C(=C\c1ccc2c(c1)N(S(=O)(=O)c1cccc(C(F)(F)F)c1)C[C@H](CCCN1CCOCC1)O2)c1c(F)cccc1Cl` [Example 119D, (S,E)-6-(2-(2-chloro-6-fluorophenyl)prop-1-en-1-yl)-2-(3-morpholinopropyl)-4-((3-(trifluoromethyl)-phenyl)sulfonyl)-3,4-dihydro-2H-benzo[b][1,4]oxazine], at RORγ-LBD (RORγ-LBD TR-FRET assay), the pEC50 was greater than 6.30 and the “TR-FRET Assay Max Response” value was “*** (a value in the range of greater than 150 to 200)”. Besides, on Gal4-RORγ-LBD (setting [1]), the pEC50 was greater than 6.30 and the “Gal4-RORγ Assay Max Response” value is on record as “** (a value in the range of greater than 90 to 150)”.
As to `CCOC(=O)C1CCN(CCC[C@H]2CN(S(=O)(=O)c3cccc(C(F)(F)F)c3)c3cc(/C=C(\C)c4c(F)cccc4Cl)ccc3O2)CC1` [Example 119E, ethyl (S,E)-1-(3-(6-(2-(2-chloro-6-fluorophenyl)prop-1-en-1-yl)-4-((3-(trifluoromethyl)phenyl)sulfonyl)-3,4-dihydro-2H-benzo[b][1,4]oxazin-2-yl)propyl)piperidine-4-carboxylate], at RORγ-LBD (RORγ-LBD TR-FRET assay), the negative logarithm of the EC50 (pEC50) is greater than 6.30 and the “TR-FRET Assay Max Response” value is “*** (a value in the range of greater than 150 to 200)”. At Gal4-RORγ-LBD (setting [1]), the pEC50 is 5.30 to 6.30 and the “Gal4-RORγ Assay Max Response” value was “** (a value in the range of greater than 90 to 150)”.
Turning to `CCOC(=O)C1CCN(CC[C@H]2CN(S(=O)(=O)c3cccc(C(F)(F)F)c3)c3cc(/C=C(\C)c4c(F)cccc4Cl)ccc3O2)CC1` [Example 119F, ethyl (S,E)-1-(2-(6-(2-(2-chloro-6-fluorophenyl)prop-1-en-1-yl)-4-((3-(trifluoromethyl)phenyl)sulfonyl)-3,4-dihydro-2H-benzo[b][1,4]oxazin-2-yl)ethyl)piperidine-4-carboxylate], the negative logarithm of the EC50 (pEC50) was greater than 6.30 at RORγ-LBD (RORγ-LBD TR-FRET assay) and less than 5.00 at Gal4-RORγ-LBD (setting [1]). The “TR-FRET Assay Max Response” value on RORγ-LBD (RORγ-LBD TR-FRET assay) is “*** (a value in the range of greater than 150 to 200)”.
On to `C/C(=C\c1ccc2c(c1)N(S(=O)(=O)c1cccc(C(F)(F)F)c1)C[C@H](CCN1CCS(=O)(=O)CC1)O2)c1c(F)cccc1Cl` [Example 119G, (S,E)-4-(2-(6-(2-(2-chloro-6-fluorophenyl)prop-1-en-1-yl)-4-((3-(trifluoromethyl)phenyl)sulfonyl)-3,4-dihydro-2H-benzo[b][1,4]oxazin-2-yl)ethyl)thiomorpholine 1,1-dioxide], for which, on RORγ-LBD (RORγ-LBD TR-FRET assay), the pEC50 was greater than 6.30 and the “TR-FRET Assay Max Response” value is given as “*** (a value in the range of greater than 150 to 200)”. For the same compound, on Gal4-RORγ-LBD (setting [1]), the negative-log EC50 (pEC50) was greater than 6.30 and the “Gal4-RORγ Assay Max Response” value is reported as “* (a value in the range of 30 to 90)”.

Source of the values: patent publication US9896441B2 (Lycera Corporation, priority 2014, dated 2018).
